Where a name gives a salt, the structure may show the parent alone.
Legend:
healthy subjects [1] = test: Phase 1 single ascending iv dose trial: safety and tolerability; format: in vivo; conditions: single iv doses 20 to 600 mg
Method: (§1) HBI-3000 (sulcardine sulfate) was administered to human subjects according to the protocol provided in ClinicalTrials.gov Identifier: NCT03397641. That protocol is incorporated herein by reference in its entirety.
(§2) Objective: Provided herein are the safety, tolerability, pharmacokinetics and electrocardiogram (ECG) results of a Phase 1 single ascending dose trial of intravenous (iv) HBI-3000 in healthy subjects.
(§3) Methods: […] subjects were randomized to 6 cohorts of 8 subjects to receive 1 of 5 single ascending iv doses (Table 2) of HBI-3000 or placebo (6:2), with 2 cohorts receiving the 600 mg dose. Doses of RBI-3000 ranged from 20 mg (Cohort A), 60 mg (Cohort B), 180 mg (Cohort C), 360 mg (Cohort D), to 600 mg (Cohort E and F). Drug was a lyophilized powder, reconstituted to […] then diluted in saline for delivery via intravenous infusion as a 50 mL solution over 30 minutes.

[2] = Phase 1 single ascending iv dose trial: pharmacokinetics (plasma sulcardine); format: in vivo, human; conditions: iv infusion, various dosages, FIG. 1
Method: as §1, §2, §3

healthy subjects [3] = test: Phase 1 single ascending iv dose trial: continuous 12-lead Holter ECG, baseline and placebo subtracted (ΔΔ) ECG intervals at Cmax; format: in vivo, human; conditions: single iv doses 20 to 600 mg
Method: as §1, §2, §3
Continuous 12-lead Holter ECG data were recorded at baseline and 11 time points thereafter. Mean baseline and placebo subtracted (ΔΔ) ECG intervals (QTcF, HR, PR, QRS, and P-wave duration [PDur]) and T-wave segments (J to T peak [JTp] and T peak to T end [TpTe]) were calculated at Cmax for each dose.
Table 2 summarizes ECG data at Cmax for each dose, as predicted by mixed-effects modeling. […] The increases in QRS and PDur are consistent with block of INa-Peak. […]

[4] = Chen et al.; cited from earlier work

| Structure (SMILES) | tolerability, dose limiting adverse events or arrhythmias (healthy subjects [1]) | removal from plasma after Cmax ([2]; listed as sulcardine sulfate) | dose dependence of ECG parameter changes (healthy subjects [3]) | half-life for oral administration [4] | removal from plasma after Cmax [2] |
| --- | --- | --- | --- | --- | --- |
| COc1ccc(S(=O)(=O)NCc2cc(CN3CCCC3)c(O)c(CN3CCCC3)c2)cc1 [HBI-3000, sulcardine sulfate] | well tolerated with no dose limiting adverse events or arrhythmias observed | quickly removed or isolated from plasma | dose-proportional changes in all ECG parameters | – | – |
| COc1ccc(S(=O)(=O)NCc2cc(CN3CCCC3)c(O)c(CN3CCCC3)c2)cc1 [sulcardine, N-[4-hydroxy-3,5-bis(1-pyrrolidinylmethyl)benzyl]-4-methoxybenzenesulfonamide] | – | – | – | about 16 hours | largely removed or isolated from plasma at 1.0 hours |
